Laboratory results: paper PMC12070378 (Microbial Biotechnology, 2025)

Molecular target: T1, Sortase A (SrtA) (Staphylococcus aureus, UniProt Q2FV99)
T1 sequence (Q2FV99 60-206): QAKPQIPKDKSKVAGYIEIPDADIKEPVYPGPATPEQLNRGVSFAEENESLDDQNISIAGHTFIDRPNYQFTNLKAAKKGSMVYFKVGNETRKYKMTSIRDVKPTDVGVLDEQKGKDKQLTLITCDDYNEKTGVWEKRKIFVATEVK
Experiment: FRET cleavage assay of Abz-LPATG-Dap
Assay type: biochemical

IC50: 7.24 µM
SMILES: CC(=O)/C=C/c1ccc(O)c(O)c1 [OSC, osmundacetone]
